Molecules are shown by their SMILES. Read-outs that look alike come from different tables or passages of the source.

Common to all, as to type: in vivo
Series [1] relates to Cabbage Looper (CL) (Trichoplusia ni). The experiment in a line: Bioassay on Cabbage Looper (CL), 128-well diet tray assay. To be noted: 168 h, 50 μg/cm^2 on artificial diet, second instar larvae, five to seven days, 25° C., read-out: CL % Control (or Mortality) rating. In outline: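 Second-instar larvae (one to five per well) placed on artificial diet treated with 50 μg/cm^2 compound in 90:10 acetone-water, dried, eight wells per compound. Held at 25 °C, 14:10 light-dark for five to seven days; percent mortality per well, averaged over the eight wells.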

Series [2] deals with Green Peach Aphid (GPA) (Myzus persicae). Nature of the series: Bioassay on Green Peach Aphid (GPA), foliar spray on cabbage seedlings. To be noted: 72 h, 200 ppm foliar spray on cabbage seedlings, graded after three days, Abbott corrected % control, read-out: GPA % Control (or Mortality) rating. As to the method:
Certain molecules disclosed in this document were tested against GPA using procedures described in the following example. In the reporting of the results, the “GPA & YFM Rating Table” was used (See Table Section).
Cabbage seedlings grown in 3-inch pots, with 2-3 small (3-5 cm) true leaves, were used as test substrate. The seedlings were infested with 20-50 GPA (wingless adult and nymph stages) one day prior to chemical application. Four pots with individual seedlings were used for each treatment. Test compounds (2 mg) were dissolved in 2 mL of acetone/MeOH (1:1) solvent, forming stock solutions of 1000 ppm test compound. The stock solutions were diluted 5× with 0.025% Tween 20 in water to obtain the solution at 200 ppm test compound. A hand-held aspirator-type sprayer was used for spraying a solution to both sides of […] leaves until runoff. Reference plants (solvent check) were sprayed with the diluent only containing 20% by volume of acetone/MeOH (1:1) solvent. Treated plants were held in a holding room for three days at approximately 25° C. and ambient relative humidity (RH) prior to grading. Evaluation was conducted by counting the number of live aphids per plant under a microscope. Percent Control was measured by using Abbott's correction formula (W. S. Abbott, “A Method of Computing the Effectiveness of an Insecticide” J. Econ. Entomol. 18 (1925), pp. 265-267) as follows. Corrected % Control=100*(X−Y)/X where X=No. of live aphids on solvent check plants and Y=No. of live aphids on treated plants. The results are indicated in the table entitled “Table ABC: Assay Results” and “Table ABCD: Assay Results” (See Table Section).

In series [3] the test system is Yellow Fever Mosquito (YFM) (Aedes aegypti). The experiment in a line: Bioassay on Yellow Fever Mosquito (YFM) larvae, 96-well plate. To be noted: about 1 day-old larvae, master plate 4000 ppm in DMSO diluted, scored on mortality after 3 days. Summed up: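 Compounds from 4000 ppm DMSO master solutions, diluted in 90:10 water:acetone, dispensed into wells and infested with about 1-day-old larvae in liver-powder water. Held covered at room temperature for 3 days, then each well scored for mortality; 6 replicate plates per master.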

The test system of series [4] is Beet Armyworm (BAW) (Spodoptera exigua). Nature of the series: Bioassay on Beet Armyworm (BAW), 128-well diet tray assay. The note with it: 168 h, 50 μg/cm^2 on artificial diet, second instar larvae, five to seven days, 25° C., read-out: BAW % Control (or Mortality) rating. In outline:
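Artificial diet was surface-treated with 50 μg/cm^2 compound in 90:10 acetone-water and dried, then infested with one to five second-instar larvae per well. Trays were held 5–7 days at 25° C, 14:10 light-dark. Percent mortality was averaged over eight wells.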

One may read the mortality as the percentage killed. Consider `CC(C)(C)OC(=O)NC1Cc2ccc(-c3ncn(-c4ccc(OC(F)(F)F)cc4)n3)cc2C1` (centres unmarked) [C1, tert-butyl (5-(1-(4-(trifluoromethoxy)phenyl)-1H-1,2,4-triazol-3-yl)-2,3-dihydro-1H-inden-2-yl)carbamate], for which the mortality at 50 µg/cm2 in series [1] (Table ABCD) and in series [4] (Table ABCD) was 50 to 100% throughout. In addition, the mortality at 200 ppm in series [2] (Table ABCD) lay in the range of 0 to 80%. In addition, the “YFM % Control (or Mortality) rating” value in series [3] (Table ABCD) was “A (80-100)”.

For `Cc1ccc(C(C)C)c(N2C(=O)CS/C2=N\C(=O)NC2Cc3ccc(-c4ncn(-c5ccc(OC(F)(F)F)cc5)n4)cc3C2)c1` (centres unmarked) [F2, (Z)-1-(3-(2-isopropyl-5-methylphenyl)-4-oxothiazolidin-2-ylidene)-3-(5-(1-(4-(trifluoromethoxy)phenyl)-1H-1,2,4-triazol-3-yl)-2,3-dihydro-1H-inden-2-yl)urea], the mortality at 50 µg/cm2 in series [1] (Table ABC) and in series [4] (Table ABC) was 50 to 100% throughout. Further, the mortality at 200 ppm in series [2] (Table ABC) is 0 to 80%. In addition, the “YFM % Control (or Mortality) rating” value in series [3] (Table ABC) is “A (80-100)”.

As to `Cc1ccc(C(C)C)c(N2C(=O)CS/C2=N\C(=O)NC2Cc3ccc(-c4ncn(-c5ccc(OC(F)(F)C(F)(F)F)cc5)n4)cc3C2)c1` (centres unmarked) [F4, (Z)-1-(3-(2-Isopropyl-5-methylphenyl)-4-oxothiazolidin-2-ylidene)-3-(5-(1-(4-(perfluoroethoxy)phenyl)-1H-1,2,4-triazol-3-yl)-2,3-dihydro-1H-inden-2-yl)urea], the mortality at 50 µg/cm2 in series [1] (Table ABC) and in series [4] (Table ABC) was 50 to 100% throughout. The mortality at 200 ppm in series [2] (Table ABC) lay in the range of 0 to 80%. The “YFM % Control (or Mortality) rating” value in series [3] (Table ABC) was “A (80-100)”.

For the molecule `CCc1ccccc1N1C(=O)CS/C1=N\C(=O)NC1Cc2ccc(-c3ncn(-c4ccc(OC(F)(F)F)cc4)n3)cc2C1` (centres unmarked) [F12, (Z)-1-(3-(2-Ethylphenyl)-4-oxothiazolidin-2-ylidene)-3-(5-(1-(4-(trifluoromethoxy)phenyl)-1H-1,2,4-triazol-3-yl)-2,3-dihydro-1H-inden-2-yl)urea], the mortality at 50 µg/cm2 in series [1] (Table ABC) and in series [4] (Table ABC) was 50 to 100% throughout. For the same molecule, the mortality at 200 ppm in series [2] (Table ABC) stood at 0%. Also, the “YFM % Control (or Mortality) rating” value in series [3] (Table ABC) is “A (80-100)”.

For `CCCc1ccc(C)cc1N1C(=O)CS/C1=N\C(=O)NC1Cc2ccc(-c3ncn(-c4ccc(OC(F)(F)F)cc4)n3)cc2C1` (centres unmarked) [F13, (Z)-1-(3-(5-Methyl-2-propylphenyl)-4-oxothiazolidin-2-ylidene)-3-(5-(1-(4-(trifluoromethoxy)phenyl)-1H-1,2,4-triazol-3-yl)-2,3-dihydro-1H-inden-2-yl)urea], the mortality at 50 µg/cm2 in series [1] (Table ABC) and in series [4] (Table ABC) was 50 to 100% throughout. Further, in series [2] (Table ABC), the mortality at 200 ppm lay in the range of 0 to 80%. Moreover, the “YFM % Control (or Mortality) rating” value in series [3] (Table ABC) is listed as “A (80-100)”.

On to `Cc1ccc(Cl)c(NC(=S)NC(=O)NC2CCc3cc(-c4ncn(-c5ccc(OC(F)(F)F)cc5)n4)ccc3C2)c1` (centres unmarked) [P30, 1-[(2-Chloro-5-methyl-phenyl)carbamothioyl]-3-[6-[1-[4-(trifluoromethoxy)phenyl]-1,2,4-triazol-3-yl]tetralin-2-yl]urea], for which the mortality at 50 µg/cm2 in series [1] (Table ABC) and in series [4] (Table ABC) was 50 to 100% in each case. Also, the “YFM % Control (or Mortality) rating” value in series [3] (Table ABC) is “A (80-100)”.

In the case of `COc1ccc(C)cc1NC(=S)NC(=O)NC1CCc2cc(-c3ncn(-c4ccc(OC(F)(F)F)cc4)n3)ccc2C1` (centres unmarked) [P31, 1-[(2-Methoxy-5-methyl-phenyl)carbamothioyl]-3-[6-[1-[4-(trifluoromethoxy)phenyl]-1,2,4-triazol-3-yl]tetralin-2-yl]urea], the mortality at 50 µg/cm2 in series [1] (Table ABC) and in series [4] (Table ABC) was 50 to 100% each time. Moreover, in series [3] (Table ABC), the “YFM % Control (or Mortality) rating” value is given as “A (80-100)”.

Regarding `Cc1ccc(C)c(N2C(=O)CS/C2=N\C(=O)NC2CCc3cc(-c4ncn(-c5ccc(OC(F)(F)F)cc5)n4)ccc3C2)c1` (centres unmarked) [P32, (Z)-1-(3-(2,5-Dimethylphenyl)-4-oxothiazolidin-2-ylidene)-3-(6-(1-(4-(trifluoromethoxy)phenyl)-1H-1,2,4-triazol-3-yl)-1,2,3,4-tetrahydronaphthalen-2-yl)urea], the mortality at 50 µg/cm2 in series [1] (Table ABC) and in series [4] (Table ABC) was 50 to 100% throughout. In addition, the “YFM % Control (or Mortality) rating” value in series [3] (Table ABC) is recorded as “B (More than 0-Less than 80)”.

`CC(C)c1ccc(Cl)cc1N1C(=O)CS/C1=N\C(=O)NC1CCc2cc(-c3ncn(-c4ccc(OC(F)(F)F)cc4)n3)ccc2C1` (centres unmarked) [P33, (Z)-1-(3-(5-Chloro-2-isopropylphenyl)-4-oxothiazolidin-2-ylidene)-3-(6-(1-(4-(trifluoromethoxy)phenyl)-1H-1,2,4-triazol-3-yl)-1,2,3,4-tetrahydronaphthalen-2-yl)urea]: the mortality at 50 µg/cm2 in series [1] (Table ABC) and in series [4] (Table ABC) was 50 to 100% each time. Besides, the “YFM % Control (or Mortality) rating” value in series [3] (Table ABC) is “A (80-100)”.

In the case of `CCCc1ccc(C)cc1N1C(=O)CS/C1=N\C(=O)NC1CCc2cc(-c3ncn(-c4ccc(OC(F)(F)F)cc4)n3)ccc2C1` (centres unmarked) [P34, (Z)-1-(3-(5-Methyl-2-propylphenyl)-4-oxothiazolidin-2-ylidene)-3-(6-(1-(4-(trifluoromethoxy)phenyl)-1H-1,2,4-triazol-3-yl)-1,2,3,4-tetrahydronaphthalen-2-yl)urea], the mortality at 50 µg/cm2 in series [1] (Table ABC) and in series [4] (Table ABC) was 50 to 100% throughout. Moreover, the “YFM % Control (or Mortality) rating” value in series [3] (Table ABC) is reported as “D (No activity noticed in this bioassay)”.

Take `COc1ccc(N2C(=O)CS/C2=N\C(=O)NC2CCc3cc(-c4ncn(-c5ccc(OC(F)(F)F)cc5)n4)ccc3C2)c(C)c1` (centres unmarked) [P35, (Z)-1-(3-(4-methoxy-2-methylphenyl)-4-oxothiazolidin-2-ylidene)-3-(6-(1-(4-(trifluoromethoxy)phenyl)-1H-1,2,4-triazol-3-yl)-1,2,3,4-tetrahydronaphthalen-2-yl)urea]: the mortality at 50 µg/cm2 in series [1] (Table ABC) and in series [4] (Table ABC) was 50 to 100% each time. For the same molecule, in series [3] (Table ABC), the “YFM % Control (or Mortality) rating” value is reported as “A (80-100)”.

`CCc1cccc(C)c1N1C(=O)CS/C1=N\C(=O)NC1CCc2cc(-c3ncn(-c4ccc(OC(F)(F)F)cc4)n3)ccc2C1` (centres unmarked) [P36, (Z)-1-(3-(2-Ethyl-6-methylphenyl)-4-oxothiazolidin-2-ylidene)-3-(6-(1-(4-(trifluoromethoxy)phenyl)-1H-1,2,4-triazol-3-yl)-1,2,3,4-tetrahydronaphthalen-2-yl)urea]: the mortality at 50 µg/cm2 in series [1] (Table ABC) and in series [4] (Table ABC) was 50 to 100% throughout. For the same molecule, the “YFM % Control (or Mortality) rating” value in series [3] (Table ABC) was “A (80-100)”.

Regarding `Cc1ccc(Cl)c(N2C(=O)CS/C2=N\C(=O)NC2CCc3cc(-c4ncn(-c5ccc(OC(F)(F)F)cc5)n4)ccc3C2)c1` (centres unmarked) [P37, (Z)-1-(3-(2-Chloro-5-methylphenyl)-4-oxothiazolidin-2-ylidene)-3-(6-(1-(4-(trifluoromethoxy)phenyl)-1H-1,2,4-triazol-3-yl)-1,2,3,4-tetrahydronaphthalen-2-yl)urea], the mortality at 50 µg/cm2 in series [1] (Table ABC) and in series [4] (Table ABC) was 50 to 100% each time. Besides, the “YFM % Control (or Mortality) rating” value in series [3] (Table ABC) was “D (No activity noticed in this bioassay)”.

In the case of `COc1ccc(C)cc1N1C(=O)CS/C1=N\C(=O)NC1CCc2cc(-c3ncn(-c4ccc(OC(F)(F)F)cc4)n3)ccc2C1` (centres unmarked) [P38, (Z)-1-(3-(2-Methoxy-5-methylphenyl)-4-oxothiazolidin-2-ylidene)-3-(6-(1-(4-(trifluoromethoxy)phenyl)-1H-1,2,4-triazol-3-yl)-1,2,3,4-tetrahydronaphthalen-2-yl)urea], the mortality at 50 µg/cm2 in series [1] (Table ABC) and in series [4] (Table ABC) was 50 to 100% throughout. Moreover, the “YFM % Control (or Mortality) rating” value in series [3] (Table ABC) is listed as “A (80-100)”.

The record behind these values is patent US9469617B2, “Molecules having certain pesticidal utilities, and intermediates, compositions, and processes related thereto” (priority 2014, dated 2016).
